The text below walks through data of ChEMBL document CHEMBL1201862, “PubChem BioAssay data set” (2004).

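Values below derive from 48-hour exposures of cells grown in 96-well plates, with endpoints linearly interpolated between the two concentrations bracketing the appropriate inhibition level. At the GI50, growth is halved.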 Calls of active or inactive are those of the source. Rule as the data show it: active = GI50 up to about 1.1 µM and inactive = higher. Where only a bound is given, the exact number is not on record here.

Holding throughout (assay): DTP human tumour cell line panel, 48 h
Assay [1] relates to HOP-92.
Assay [2] concerns RXF 393.
For assay [3], the system named is OVCAR-3.
In assay [4] the test system is OVCAR-4.
In assay [5] the test system is SK-OV-3.
Assay [6] relates to HCT-15.
Assay [7] has as its system TK-10.
In assay [8] the test system is KM12.
Assay [9] deals with HL-60.
Assay [10] has as its system PC-3.
Assay [11] concerns K562.
Assay [12] has as its system MCF7.
Assay [13] deals with NCI-H522.
For assay [14], the system named is SK-MEL-2.
The test system of assay [15] is SK-MEL-5.
Assay [16] relates to SW-620.
The subject of assay [17] is ACHN.
The subject of assay [18] is UO-31.
Assay [19] deals with OVCAR-5.
The test system of assay [20] is LOX IMVI.

By GI50 is commonly meant the concentration that inhibits growth by half.

`NS(=O)(=O)c1ccc(NNc2c3ccccc3nc3c(C(=O)Nc4ccc(S(=O)(=O)Nc5ncccn5)cc4)cccc23)cc1`: the GI50 in assay [1] is > 25 µM (inactive); in assay [2], > 25 µM (inactive); in [3], > 25 µM (inactive); in [4], > 25 µM (inactive); in assay [5], > 25 µM (inactive); in [6], over 25 µM. Besides, the GI50 in assay [7], in [8], in assay [9], in assay [10], in assay [11] and in [12] was > 25 µM (inactive) in each case. The GI50 in [13], in assay [14], in assay [15], in [16], in assay [17] and in [18] was > 25 µM (inactive) throughout. The GI50 in [19] and in assay [20] was > 25 µM (inactive) throughout.
Take `Cn1c2c3ccc(Cl)cc3nc-2c(Cl)c2ccccc21`: the GI50 in assay [1] is 15.7 µM (inactive); in assay [2], 16.6 µM (inactive); in [3], 14 µM (inactive); in assay [4], 17.1 µM (inactive); in assay [5] it was 49.4 µM (inactive); in assay [6] it was 14.7 µM. In addition, the GI50 was 16.6 µM (inactive) in assay [7]; 16.9 µM (inactive) in assay [8]; 24.2 µM (inactive) in [9]; 13.7 µM (inactive) in [10]; 6.01 µM (inactive) in [11]; 26.2 µM (inactive) in [12]. Further, the GI50 in [13] is 17.9 µM (inactive); in assay [14], 21.4 µM (inactive); in [15], 16.4 µM (inactive); in assay [16], 11.9 µM (inactive); in [17], 13.5 µM (inactive); in assay [18], 16.3 µM (inactive). Besides, the GI50 is 17.3 µM (inactive) in [19] and 13.3 µM (inactive) in assay [20].
Regarding `CCSC(=O)N1c2ccc(OC)cc2C=CC1C#N` (centres undefined), the GI50 in assay [1] was 0.1 µM (active); in assay [2], 0.1 µM (active); in assay [3], 0.001 µM (active); in assay [4], 0.308 µM (active); in [5], 0.00425 µM (active); in assay [6], 0.00734 µM. The GI50 was 0.00971 µM (active) in assay [7]; 0.00449 µM (active) in assay [8]; 0.00347 µM (active) in assay [9]; 0.00364 µM (active) in assay [10]; 0.00632 µM (active) in assay [11]; 0.00883 µM (active) in [12]. In addition, the GI50 in assay [13] is 0.00698 µM (active); in assay [14], < 0.01 µM (active); in assay [15] it was 0.00152 µM (active); in [16] it was 0.00356 µM (active); in assay [17], 0.0041 µM (active); in assay [18], < 0.01 µM (active). Besides, the GI50 in assay [19] was < 0.00993 µM (active); in [20], 0.00424 µM (active).
As for `Cn1c(SCc2c[nH]c3ccccc23)nnc1-c1ccc(Cl)cc1Cl`, the GI50 was 12.6 µM (inactive) in assay [1]; 12.2 µM (inactive) in [2]; 12.1 µM (inactive) in [3]; 12.4 µM (inactive) in assay [4]; 15.9 µM (inactive) in [5]; 12.1 µM in assay [6]. The GI50 in [7] is 17.1 µM (inactive); in assay [8] it was 9.82 µM (inactive); in [9] it was 10.4 µM (inactive); in assay [10] it was 12.1 µM (inactive); in assay [11], 4.23 µM (inactive); in assay [12], 22.7 µM (inactive). For the same compound, the GI50 in assay [13] is 12.7 µM (inactive); in [14] it was 12.3 µM (inactive); in [15], 14.5 µM (inactive); in assay [16], 19.5 µM (inactive); in [17], 23.9 µM (inactive); in assay [18] it was 18 µM (inactive). The GI50 was 22.8 µM (inactive) in assay [19] and 5.18 µM (inactive) in assay [20].
On to `Cc1nc2nnc(CCCCCCCCc3nnc4nc(C)[nH]n34)n2[nH]1`, for which the GI50 in assay [1] was > 100 µM (inactive); in assay [2] it was > 100 µM (inactive); in assay [3], > 100 µM (inactive); in [4], > 100 µM (inactive); in assay [5], > 100 µM (inactive); in [6], over 100 µM. The GI50 was > 100 µM (inactive) in [7]; 66.1 µM (inactive) in assay [8]; > 100 µM (inactive) in assay [9]; > 100 µM (inactive) in assay [10]; > 100 µM (inactive) in assay [11]; > 100 µM (inactive) in assay [12]. In addition, the GI50 is 60.5 µM (inactive) in assay [13]; > 100 µM (inactive) in [14]; > 100 µM (inactive) in assay [15]; > 100 µM (inactive) in assay [16]; > 100 µM (inactive) in [17]; > 100 µM (inactive) in assay [18]. In addition, the GI50 was > 100 µM (inactive) in assay [19] and 47.4 µM (inactive) in [20].
With `CN(CCCCCl)P(=O)(OCc1ccc([N+](=O)[O-])o1)OC[C@H]1O[C@@H](n2cc(F)c(=O)[nH]c2=O)C[C@@H]1O` (some centres undefined), the GI50 was 0.64 µM (active) in [1]; 0.302 µM (active) in assay [2]; 0.52 µM (active) in assay [3]; 12.8 µM (inactive) in [4]; 0.372 µM (active) in assay [5]; 21.6 µM in [6]. Moreover, the GI50 in [7] was 1.79 µM (inactive); in assay [8] it was 12.4 µM (inactive); in assay [9], 0.766 µM (active); in assay [10], 4.34 µM (inactive); in assay [11], 12.4 µM (inactive); in assay [12] it was < 0.0227 µM (active). Besides, the GI50 in [13] was 3.77 µM (inactive); in assay [14] it was 17.1 µM (inactive); in [15], 0.849 µM (active); in assay [16], 17.3 µM (inactive); in [17], 0.0365 µM (active); in assay [18], 0.355 µM (active). For the same compound, the GI50 in [19] was > 44.5 µM (inactive); in assay [20] it was 0.07 µM (active).
For the compound `CCCC1CCC(=C2C(=O)CCC2=O)O1` (centres undefined), the GI50 in assay [1] was > 100 µM (inactive); in assay [2], > 100 µM (inactive); in [3] it was > 100 µM (inactive); in assay [4] it was > 100 µM (inactive); in assay [5], > 100 µM (inactive); in assay [6] it was over 100 µM. In addition, the GI50 in [7] was > 100 µM (inactive); in assay [8] it was > 100 µM (inactive); in assay [9], 0.364 µM (active); in [10] it was > 100 µM (inactive); in assay [11] it was > 100 µM (inactive); in [12] it was > 100 µM (inactive). The GI50 in [13], in assay [14], in assay [16], in assay [17], in assay [18] and in [19] was > 100 µM (inactive) throughout. In [20], the GI50 is > 100 µM (inactive).
